According to US6388105B1, “Benzofuran, indole or benzothiophene 2,4-pentadienoic acid derivatives having selective activity for retinoid X (RXR) receptors” (Allergan Sales, Inc., priority 2001, dated 2002):

Experiments:
RXRγ [1] = target: T1, RXRγ (Homo sapiens, UniProt P48443); assay: holoreceptor transactivation assay, RXRγ; format: cell-based; details: for EC50: read-out: EC50 (nM) RXR γ
T1 construct: expressed in transfected cells
T1 sequence (P48443 1-463): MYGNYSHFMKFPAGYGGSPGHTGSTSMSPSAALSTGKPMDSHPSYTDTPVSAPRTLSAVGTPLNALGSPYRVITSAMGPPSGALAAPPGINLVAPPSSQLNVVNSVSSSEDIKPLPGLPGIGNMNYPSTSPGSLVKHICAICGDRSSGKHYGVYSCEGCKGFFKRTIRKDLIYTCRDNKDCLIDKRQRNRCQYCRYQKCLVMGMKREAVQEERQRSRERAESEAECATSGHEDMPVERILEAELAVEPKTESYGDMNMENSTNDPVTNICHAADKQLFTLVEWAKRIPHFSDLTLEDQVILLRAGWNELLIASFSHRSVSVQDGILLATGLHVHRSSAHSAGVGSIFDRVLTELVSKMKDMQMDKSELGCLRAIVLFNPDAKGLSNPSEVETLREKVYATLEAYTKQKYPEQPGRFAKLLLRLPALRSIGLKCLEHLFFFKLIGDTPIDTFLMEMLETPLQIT
Text: (§1) A holoreceptor transactivation assay and a ligand binding assay which measure the antagonist/agonist like activity of the compounds of the invention, or their ability to bind to the several retinoid receptor subtypes, respectively, are described in published PCT Application No. WO WO93/11755 (particularly on pages 30-33 and 37-41) published on Jun. 24, 1993, the specification of which is also incorporated herein by reference. A detailed experimental procedure for holoreceptor transactivations has been described by Heyman et al. Cell 68, 397-406, (1992); Allegretto et al. J. Biol. Chem. 268, 26625-26633, and Mangelsdorf et al. The Retinoids: Biology, Chemistry and Medicine, pp 319-349, Raven Press Ltd., New York, which are expressly incorporated herein by reference. The results obtained in this assay are expressed in EC50 numbers, as they are also in the chimeric receptor transactivation assay. The results of ligand binding assay are expressed in Kd numbers. (See Cheng et al. Biochemical Pharmacology Vol. 22 pp 3099-3108, expressly incorporated herein by reference.)
(§2) Table 1 discloses the activity of certain exemplary compounds of the invention in the above-described holoreceptor transactivation assay and a ligand binding assays. Particularly, the transactivation data pertaining to RAR receptors were obtained in the chimeric assay, and the data pertaining to transactivation of RXR receptors were obtained in the holoreceptor transactivation assay.

RXRβ [2] = target: T2, RXRβ (Homo sapiens, UniProt P28702); assay: ligand binding assay, RXRβ; details: read-out: Kd (nM) RXR β
T2 construct: expressed in transfected cells
T2 sequence (P28702 1-533): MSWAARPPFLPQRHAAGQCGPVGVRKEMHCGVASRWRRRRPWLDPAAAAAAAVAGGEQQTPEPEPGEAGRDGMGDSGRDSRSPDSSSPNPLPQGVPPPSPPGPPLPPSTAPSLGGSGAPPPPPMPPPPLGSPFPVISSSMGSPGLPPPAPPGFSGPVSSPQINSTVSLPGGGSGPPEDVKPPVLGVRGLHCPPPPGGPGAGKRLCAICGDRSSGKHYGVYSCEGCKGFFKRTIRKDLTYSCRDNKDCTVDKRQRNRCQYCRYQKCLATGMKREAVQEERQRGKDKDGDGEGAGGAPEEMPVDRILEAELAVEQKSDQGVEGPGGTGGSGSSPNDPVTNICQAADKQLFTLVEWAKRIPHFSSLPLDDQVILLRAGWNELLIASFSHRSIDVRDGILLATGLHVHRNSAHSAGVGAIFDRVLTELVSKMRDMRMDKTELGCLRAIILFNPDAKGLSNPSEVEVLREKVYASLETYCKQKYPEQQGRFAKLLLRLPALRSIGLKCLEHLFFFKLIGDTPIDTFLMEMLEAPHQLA
Text: as §1, §2

RXRγ [3] = target: T1, RXRγ; assay: ligand binding assay, RXRγ; details: read-out: Kd (nM) RXR γ
Text: as §1, §2

RXRα [4] = target: T3, RXRα (Homo sapiens, UniProt P19793); assay: holoreceptor transactivation assay, RXRα; format: cell-based; details: for EC50: read-out: EC50 (nM) RXR α
T3 construct: expressed in transfected cells
T3 sequence (P19793 1-462): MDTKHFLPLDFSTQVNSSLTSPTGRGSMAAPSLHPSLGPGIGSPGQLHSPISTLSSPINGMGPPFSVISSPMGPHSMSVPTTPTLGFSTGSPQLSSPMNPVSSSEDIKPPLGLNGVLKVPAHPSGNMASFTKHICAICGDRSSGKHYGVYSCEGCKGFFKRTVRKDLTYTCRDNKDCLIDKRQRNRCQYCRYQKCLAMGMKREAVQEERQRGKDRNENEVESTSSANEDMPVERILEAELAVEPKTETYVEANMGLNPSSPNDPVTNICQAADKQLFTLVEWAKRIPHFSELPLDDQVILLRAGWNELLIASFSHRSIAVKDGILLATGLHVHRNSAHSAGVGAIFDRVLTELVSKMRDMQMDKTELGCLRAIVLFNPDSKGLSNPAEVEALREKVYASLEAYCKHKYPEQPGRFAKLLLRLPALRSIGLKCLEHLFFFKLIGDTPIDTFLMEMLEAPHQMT
Text: as §1, §2

RXRβ [5] = target: T2, RXRβ; assay: holoreceptor transactivation assay, RXRβ; format: cell-based; details: for EC50: read-out: EC50 (nM) RXR β
Text: as §1, §2

RXRα [6] = target: T3, RXRα; assay: ligand binding assay, RXRα; details: read-out: Kd (nM) RXR α
Text: as §1, §2

Row | % Eff RXR γ (RXRγ [1]) [%] | EC50 (RXRγ [1]) [nM] | Kd (RXRβ [2]) [nM] | Kd (RXRγ [3]) [nM] | % Eff RXR α (RXRα [4]) [%] | EC50 (RXRα [4]) [nM] | % Eff RXR β (RXRβ [5]) [%] | EC50 (RXRβ [5]) [nM] | Kd (RXRα [6]) [nM] | Compound
1 | 131 | 2.9 | 20 | 40 | 144 | 1.5 | 150 | 17 | 11 | CCc1oc2ccc([C@@]3(C)C[C@H]3/C=C/C(C)=C/C(=O)O)cc2c1C(C)(C)C [Compound 12, 3-Methyl-6(S),7(S)-methano-7-(3-t-butyl-2-ethyl-benzofur-5-yl)-octa-2(E),4(E)-dienoic acid]
2 | 90 | 12 | 288 | 256 | 130 | 6 | 90 | 44 | 71 | CCc1oc2ccc([C@@]3(C)C[C@H]3/C=C/C(C)=C/C(=O)O)cc2c1CC [Compound 20, 3-Methyl-6(S),7(S)-methano-7-(2,3-di-ethyl-benzofur-5-yl)-octa-2(E),4(E)-dienoic acid]
3 | 110 | 0.8 | 17 | 48 | 102 | 0.7 | 116 | 4.3 | 6.8 | CCc1oc2ccc([C@@]3(C)C[C@H]3/C=C/C(C)=C/C(=O)O)cc2c1C(C)C [Compound 28, 3-Methyl-6(S),7(S)-methano-7-(2-ethyl-3-iso-propyl-benzofur-5-yl)-octa-2(E),4(E)-dienoic acid]
4 | 101 | 2.6 | 98 | > 1000 | 100 | 2.2 | 96 | 9.3 | 19.5 | CCCCCc1oc2ccc([C@@]3(C)C[C@H]3/C=C/C(C)=C/C(=O)O)cc2c1C(C)(C)C [Compound 38, 3-Methyl-6(S),7(S)-methano-7-(3-t-butyl-2-n-pentyl-benzofur-5-yl)-octa-2(E),4(E)-dienoic acid]
